As a reminder, the vapor or sublimation pressure is the pressure of vapour in equilibrium with the condensed phase.

± gives the expanded uncertainty stated by the source.

Here are results for four compounds from the NIST ThermoML archive (doi:10.1021/je800757j).

The conditions of this series: Liquid.

As to `CCCCCCC` [heptane], the “vapor or sublimation pressure” value came out at 477 ± 18 kPa (433.15 K), 587 ± 19 kPa (443.15 K) and 703 ± 21 kPa (453.15 K).

As for `CCCCCC` [hexane], the “vapor or sublimation pressure” value reads like this: (393.15 K) 410 ± 17 kPa; (413.15 K) 633 ± 20 kPa; (433.15 K) 918 ± 25 kPa; (453.15 K) 1301 ± 33 kPa.

With `CCCC` [butane], the “vapor or sublimation pressure” value reads like this: (353.15 K) 1039 ± 27 kPa; (373.15 K) 1586 ± 39 kPa; (393.15 K) 2265 ± 56 kPa; (413.15 K) 3156 ± 78 kPa.

For the compound `CCCCC` [pentane], the “vapor or sublimation pressure” value (373.15 K) came to 600 ± 20 kPa and the “vapor or sublimation pressure” value (423.15 K) is reported as 1620 ± 40 kPa.
